Experiment [1] deals with T1, Human GPR120 short form (short splice variant, NM_001195755.1) (Homo sapiens, UniProt Q5NUL3).
T1 construct: expressed in transfected cells; host or cells: HEK293
T1 sequence (Q5NUL3 1-361): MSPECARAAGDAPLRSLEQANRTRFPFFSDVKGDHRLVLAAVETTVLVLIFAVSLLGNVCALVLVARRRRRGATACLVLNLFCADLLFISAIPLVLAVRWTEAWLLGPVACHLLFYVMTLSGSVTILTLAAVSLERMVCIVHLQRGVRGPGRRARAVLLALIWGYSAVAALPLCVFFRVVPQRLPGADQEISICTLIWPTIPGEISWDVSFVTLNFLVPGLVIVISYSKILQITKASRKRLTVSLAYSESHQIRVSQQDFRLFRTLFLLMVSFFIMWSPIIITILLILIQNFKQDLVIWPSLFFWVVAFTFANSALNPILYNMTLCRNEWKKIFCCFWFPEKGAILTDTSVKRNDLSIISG
Kind of experiment: Human GPR120 Calcium Flux Assay. Conditions: HEK-293 cells, 4200 cells/well, read-out: Human GPR120 Calcium Flux Assay Procedure B EC50. The format is cell-based. From the text: In Vitro Assay: Human GPR120 in Calcium Flux Assay
This in vitro assay serves to assess test compound agonist activity against the short splice variant (SVS with Accession number NM_001195755.1 confirmed by sequencing data) of the GPR120 receptor. The Human Short splice variant #2 (NM_001195755.1) is missing an in-frame coding exon compared to variant 1 (the Human Long splice variant NM_181745.3), resulting in a shorter isoform (GPR120-S) lacking a 16 aa protein segment compared to isoform GPR120-L. The assay platform utilizes HEK-293 cells stably transfected to express the Human GPR120 short form. These cells are first loaded with the Ca^+2 sensitive dye, Fluo-4 NW. Upon stimulation, intracellular released Ca^+2 can bind to the dye and alter its fluorescence intensity. This increase in fluorescence signal, and thus the flux in intracellular [Ca^2+], is detected and quantitated by fluorescence imaging using a FLIPR reader. The effect of the agonist is measured as a function of concentration and used to calculate an EC50 based upon a response curve. […]
In this procedure 4200 cells/well were employed.
A Human GPR120 clone (Genbank accession number NM_001195755.1) was placed into the pcDNA3.1 mammalian expression vector carrying the neomycin resistance gene. A stable mammalian cell was generated by placing the above clone into a HEK293 background. Clonal cells responding to long chain fatty acids had expression levels of GPR120 confirmed by RT-qPCR. Human HEK-GPR120 cells were cultured in Dulbecco's Modified Eagle's Medium (DMEM)/F12 medium supplemented with 10% fetal bovine serum (FBS), 1% L-Glutamine and 1% penicillin/streptomycin and 0.5 mg/ml G-418. Cells were split 2 times a week to keep the cells in the log-phase growth.
In preparation for the assay, HEK cells stably transfected with Human GPR120 (2.5K cells per well in 25 uL growth medium) were seeded into 384-well plates and then incubated overnight (37° C., 5% CO2). The next day, the media was changed to 20 μL assay buffer and the cell starved for 1 h at 37° C. The dye loading solution (2× dye) was prepared using 10 mL assay buffer, 100 μL of 250 mM probenecid, 1 bottle of Component A, and 20 μl of dye in DMSO. Twenty μL of the 2× dye loading buffer was then added to each well. The plates were incubated at 37° C. for 30 min, then at room temperature for an additional 15 minutes, before performing the assay on FLIPR.
The assay was performed on a FLIPR plate reader using the following parameters. Baseline was read for 10 seconds at 1 sec intervals. The program was set to transfer 10 μL of ligand from compound plate to cell plate after baseline reading. Aspiration was executed at: 10 μL/sec speed, 4.6 μL height; Dispensing was executed at: 30 μL/sec speed, 45 μL height. After compound addition, each well was read for 300 sec, with measurements collected at 1 sec intervals.
The kinetic data from the FLIPR was based upon a 5 minute window for data collection. The fluorescence of each sample well was used for individual calculations of a normalized RFU value, which was defined as maximum response minus the minimum response. The normalized fluorescence reading (RFU) was calculated as follows:
The data were fitted to a sigmoidal dose-response curve with a variable Hill slope (<2) using nonlinear regression with GraphPad Prism 5.0 to calculate the EC50 values. The Fitting Equation was: Y=Bottom+(Top−Bottom)/(1+10^((Log EC50−X)*HillSlope)), where X is the log of the concentration and Y is the response.

For a further experiment, the target named is GPR40 (UniProt O14842). Kind of experiment: GPR40 Calcium Flux Assay. It counts as cell-based. Conditions: transfected HEK293 cells stably expressing human or rat GPR40; species not given. As for the experimental part:
Biological Example 3: In Vitro Assay
Compounds were tested in a calcium flux assay using transfected HEK293 cells stably expressing either human GPR40 or rat GPR40. Human GPR40 expressing cells were cultured in DMEM-High Glucose media supplemented with 10% fetal bovine serum, 1×L-Glutamine, 1× Penicillin/Streptomycin and 500 μg/mL G418. Rat GPR40 expressing cells were cultured in DMEM-High Glucose media supplemented with 10% fetal bovine serum and 1 μg/mL puromycin. Cells were plated into poly-D-lysine coated 384-well plates and cultured overnight in a 37° C. humidified tissue culture incubator under 5% CO2/90% O2 atmosphere.
On the day of the experiment, the culture media was replaced with assay buffer (HBSS, 20 mM HEPES, 0.1% BSA) and the cells incubated at 37° C. for 1 h. Calcium-sensitive fluorescent dye (Fluo 8 No-Wash Calcium Dye, ABD Bioquest) was then added and the cells incubated for another 30 min at 37° C. followed by 15 min at room temperature while protected from the light. The cell plate and a plate of diluted compounds of Formula (I) were loaded into a fluorescent plate reader that added compounds onto the cells while measuring the fluorescence intensity of each well. The plate reader recorded fluorescence intensity at 1 second intervals for 8 min and provided the data for analysis in an Excel format. EC50 values were calculated using Prism (GraphPad) software.
(Calcium flux is commonly read through the fluorescence of an indicator in the cells.)

pEC50: −log10 of the molar value. Bounds are passed on as bounds.

One may read the pEC50 as −log10 of the EC50, conventionally taken in molar units.

Consider `O=C(O)CCc1cc(F)c(OCC2=C(Cc3ccc(Cl)cc3)CCOC2)c(F)c1` [compound 721], for which the pEC50 is 5.62 in experiment [1] and less than 5.00 on GPR40.

Take `Cc1ccc(CC2=C(COc3ccc(CCC(=O)O)cc3)COCC2)cc1` [compound 691]: the pEC50 in experiment [1] is 5.62; at GPR40, 5.44.

As to `CC(C)C1=C(COc2ccc(CCC(=O)O)c(C(F)(F)F)c2)COCC1` [compound 735], the values for the pEC50 (in experiment [1]; on GPR40) were 5.66 and 6.31, respectively.

As to `O=C(O)CCc1ccc(OCC2=C(C3CCCCC3)CCOC2)cc1C(F)(F)F` [compound 729], the pEC50 is 5.57 in experiment [1] and 6.07 on GPR40.

Regarding `CC(C1=C(COc2ccc(CCC(=O)O)c(C(F)(F)F)c2)COCC1)c1ccccc1` (stereo not drawn) [compound 701], the pEC50 was less than 5.30 in experiment [1] and 6.84 on GPR40.

Consider `C=C(C1=C(COc2ccc(CCC(=O)O)cc2)COCC1)c1ccc(F)cc1` [compound 702], for which the results for the pEC50 (in experiment [1]; on GPR40) were less than 5.30 and 5.81, respectively.

`CC(C)CC1=C(COc2ccc(CCC(=O)O)c(C(F)(F)F)c2)COCC1` [compound 717]: the pEC50 in experiment [1] was 5.88; on GPR40 it was 6.88.

For `Cc1ccc(C2=C(COc3ccc(CCC(=O)O)c(C(F)(F)F)c3)COCC2)cc1F` [compound 685], the pEC50 in experiment [1] is 6.01; at GPR40 it was 6.08.

For the molecule `C=C(C1=C(COc2ccc(CCC(=O)O)c(Cl)c2)COCC1)c1ccccc1` [compound 720], the pEC50 in experiment [1] was less than 5.30; at GPR40, 6.47.

For `O=C(O)CCc1ccc(OCC2=C(C3CCCC3)COC2)cc1` [compound 632], the pEC50 in experiment [1] is 6.37; at GPR40, 5.59.

On to `O=C(O)CCc1ccc(OCC2=C(C3CCCC3)CCOC2)cc1Cl` [compound 727], for which the values for the pEC50 (in experiment [1]; at GPR40) were 5.80 and 6.41, respectively.

Take `Cc1c(CCC(=O)O)ccc(OCC2=C(C3CCC3)CCOC2)c1C` [compound 724]: the pEC50 in experiment [1] is 6.56; at GPR40 it was less than 5.00.

Turning to `CCC1=C(COc2ccc(CCC(=O)O)c(C(F)(F)F)c2)COCC1` [compound 716], the pEC50 in experiment [1] was 5.74; at GPR40, 6.24.

`C=C(C1=C(COc2ccc(CCC(=O)O)c(C(F)(F)F)c2)COCC1)c1ccccc1Cl` [compound 706]: the figures for the negative logarithm of the EC50 (pEC50) (in experiment [1]; at GPR40) were less than 5.30 and 7.42, respectively.

`O=C(O)CCc1ccc(OCC2=C(Cc3ccccc3)CCOC2)cc1` [compound 688]: the pEC50 in experiment [1] is 5.53; at GPR40, 5.49.

Turning to `CCCCCCC1=C(COc2ccc(CCC(=O)O)c(C(F)(F)F)c2)COCC1` [compound 719], the results for the pEC50 (in experiment [1]; on GPR40) were less than 5.30 and 5.99, respectively.

As for `COc1ccc(CC2=C(COc3ccc(CCC(=O)O)cc3)COCC2)cc1` [compound 697], the pEC50 in experiment [1] was less than 5.30; on GPR40 it was roughly 4.72.

On to `C=C(C1=C(COc2ccc(CCC(=O)O)c(C(F)(F)F)c2)COCC1)c1ccccc1` [compound 687], for which the pEC50 is less than 5.30 in experiment [1] and 7.27 at GPR40.

For the molecule `C=C(C1=C(COc2ccc(CCC(=O)O)cc2F)COCC1)c1ccccc1` [compound 723], the pEC50 in experiment [1] is less than 5.30; at GPR40, less than 5.00.

Take `Cc1ccc(C2=C(COc3ccc(CCC(=O)O)c(C)c3C)COCC2)cc1F` [compound 659]: the figures for the pEC50 (in experiment [1]; at GPR40) were 7.18 and less than 5.00, respectively.

Turning to `CC(C)CCC1=C(COc2ccc(CCC(=O)O)c(C(F)(F)F)c2)COCC1` [compound 722], the pEC50 in experiment [1] is 5.92; on GPR40, 6.01.

`C=C(C1=C(COc2ccc(CCC(=O)O)cc2)COCC1)c1ccccc1` [compound 699]: the pEC50 in experiment [1] is less than 5.30; at GPR40, 5.76.

As to `O=C(O)CCc1ccc(OCC2=C(C3C=CCC3)CCOC2)cc1` (stereo not drawn) [compound 740], the figures for the pEC50 (in experiment [1]; on GPR40) were 5.94 and 5.68, respectively.

In the case of `O=C(O)CCc1ccc(OCC2=C(C3CCCC3)CCOCC2)cc1` [compound 780], the pEC50 in experiment [1] is 5.88; at GPR40, 5.58.

Take `O=C(O)CCc1ccc(OCC2=C(C3CCCC3)COCC2)cc1` [compound 764]: the pEC50 is 6.34 in experiment [1] and 5.84 on GPR40.

As to `Cc1ccc(C2=C(COc3ccc(CCC(=O)O)c(C(F)(F)F)c3)COCC2)c(F)c1` [compound 684], the pEC50 in experiment [1] was 6.10; at GPR40 it was 5.57.

For `O=C(O)CCc1ccc(OCC2=C(CC3CCCCC3)CCOC2)cc1C(F)(F)F` [compound 718], the values for the pEC50 (in experiment [1]; at GPR40) were less than 5.30 and 5.85, respectively.

Regarding `O=C(O)CCc1ccc(OCC2=C(C3CCC3)CCOC2)cc1Cl` [compound 725], the values for the pEC50 (in experiment [1]; on GPR40) were 5.63 and 6.23, respectively.

As for `O=C(O)CCc1ccc(OCC2=C(C3CCCC3)CCOC2)cc1C(F)(F)F` [compound 731], the pEC50 is 6.09 in experiment [1] and 7.03 on GPR40.

Regarding `CCCCC1=C(COc2ccc(CCC(=O)O)c(C(F)(F)F)c2)COCC1` [compound 707], the figures for the pEC50 (in experiment [1]; on GPR40) were 6.08 and 6.49, respectively.

For `O=C(O)CCc1cc(F)c(OCC2=C(Cc3ccccc3)CCOC2)c(F)c1` [compound 714], the negative-log EC50 (pEC50) is 5.72 in experiment [1] and less than 5.00 on GPR40.

As to `O=C(O)CCc1ccc(OCC2=C(Cc3ccccc3)CCOC2)cc1Cl` [compound 713], the pEC50 in experiment [1] is less than 5.30; at GPR40, 6.15.

For the molecule `O=C(O)CCc1ccc(OCC2=C(Cc3ccc(Cl)cc3)CCOC2)cc1` [compound 695], the pEC50 in experiment [1] was less than 5.30; on GPR40 it was 5.50.

Source of the values: patent US20210024483A1, “HETEROCYLCOALKENYL DERIVATIVES USEFUL AS AGONISTS OF THE GPR120 AND / OR GPR40” (Janssen Pharmaceutica NV, priority 2018, published 2021).
